# Experiments:
# [1] = test system: HepG2; assay: Cytotoxicity against human HepG2 cells after 2 days by MTT assay; type: cell-based; conditions: HepG2, 48 h
# [2] = test system: Aspergillus fumigatus; assay: Antifungal activity against Aspergillus fumigatus ATCC 1028 after 24 to 168 hrs by broth microdilution assay; type: functional
# [3] = test system: Nakaseomyces glabratus; assay: Ratio of fluconazole MIC to compound MIC for Candida glabrata IFRC 339; type: functional
# [4] = test system: Nakaseomyces glabratus; assay: Antifungal activity against Candida glabrata IFRC 339 after 24 to 168 hrs by broth microdilution assay; type: functional
# [5] = test system: Candida albicans; assay: Ratio of fluconazole MIC to compound MIC for Candida albicans ATCC 18804; type: functional
# [6] = test system: Candida albicans; assay: Ratio of fluconazole MIC to compound MIC for Candida albicans PTCC 6027; type: functional
# [7] = test system: Candida albicans; assay: Antifungal activity against Candida albicans ATCC 18804 after 24 to 168 hrs by broth microdilution assay; type: functional
# [8] = test system: Cryptococcus neoformans; assay: Antifungal activity against Cryptococcus neoformans IFRC 192 after 24 to 168 hrs by broth microdilution assay; type: functional
# [9] = test system: Candida albicans; assay: Antifungal activity against Candida albicans PTCC 6027 after 24 to 168 hrs by broth microdilution assay; type: functional
# [10] = Stability of the compound in deuterated DMSO at RT after 2 weeks by 1H-NMR spectroscopy; type: physicochemical; conditions: 336 h
# [11] = Stability of the compound in PBS at 0.15 to 6 ug/ml at pH 5.8 to 8 at RT after 2 weeks by UV spectrophotometry; type: physicochemical; conditions: buffer, pH 5.8, 336 h
SMILES,IC50 [1],MIC [2],Ratio [3],MIC [4],Ratio [5],Ratio [6],MIC [7],MIC [8],MIC [9],Stability [10],Stability [11]
OC(CSc1nnc(-c2ccc(Cl)cc2Cl)[nH]1)(Cn1cncn1)c1ccc(Cl)cc1Cl (centres undefined),97.1 µg/mL,> 128 µg/mL,4,0.25 µg/mL,25,4,0.5 µg/mL,32 µg/mL,< 0.01 µg/mL,–,–
OC(CSc1nnc(-c2ccc(F)cc2)[nH]1)(Cn1cncn1)c1ccc(F)cc1F (centres undefined),–,> 128 µg/mL,–,4 µg/mL,–,–,8 µg/mL,> 128 µg/mL,4 µg/mL,–,–
OC(CSc1nnc(-c2ccc(Cl)cc2Cl)[nH]1)(Cn1cncn1)c1ccc(F)cc1F (centres undefined),> 250 µg/mL,> 128 µg/mL,4,0.25 µg/mL,8,4,0.5 µg/mL,64 µg/mL,0.03 µg/mL,Stable,Stable
OC(CSc1nnc(-c2ccncc2)[nH]1)(Cn1cncn1)c1ccc(Cl)cc1Cl (centres undefined),–,> 128 µg/mL,–,128 µg/mL,–,–,8 µg/mL,> 128 µg/mL,4 µg/mL,–,–
OC(Cn1cncn1)(Cn1cncn1)c1ccc(F)cc1F [FLUCONAZOLE],> 250 µg/mL,8 µg/mL,–,64 µg/mL,–,–,2 µg/mL,4 µg/mL,0.25 µg/mL,–,–
Nn1c(SCC(O)(Cn2cncn2)c2ccc(Cl)cc2Cl)nnc1-c1ccc(Cl)cc1Cl (centres undefined),–,–,–,–,–,–,–,–,8 µg/mL,–,–
Nn1c(SCC(O)(Cn2cncn2)c2ccc(F)cc2F)nnc1-c1ccc(Cl)cc1Cl (centres undefined),–,–,–,–,–,–,–,–,16 µg/mL,–,–
OC(CSc1nnc(-c2ccc(Cl)cc2)[nH]1)(Cn1cncn1)c1ccc(Cl)cc1Cl (centres undefined),–,> 128 µg/mL,–,128 µg/mL,–,–,0.5 µg/mL,> 128 µg/mL,0.125 µg/mL,–,–
Cc1ccc(-c2nnc(SCC(O)(Cn3cncn3)c3ccc(F)cc3F)[nH]2)cc1 (centres undefined),–,> 128 µg/mL,–,128 µg/mL,–,–,2 µg/mL,> 128 µg/mL,2 µg/mL,–,–
OC(CSc1nnc(-c2cccc(Br)c2)[nH]1)(Cn1cncn1)c1ccc(Cl)cc1Cl (centres undefined),–,> 128 µg/mL,–,128 µg/mL,8,–,0.25 µg/mL,4 µg/mL,0.06 µg/mL,–,–
OC(CSc1nnc(-c2ccccc2)[nH]1)(Cn1cncn1)c1ccc(F)cc1F (centres undefined),–,> 128 µg/mL,–,128 µg/mL,–,–,0.5 µg/mL,> 128 µg/mL,8 µg/mL,–,–
OC(CSc1nnc(-c2ccncc2)[nH]1)(Cn1cncn1)c1ccc(F)cc1F (centres undefined),–,> 128 µg/mL,–,128 µg/mL,–,–,64 µg/mL,> 128 µg/mL,64 µg/mL,–,–
Oc1ccc(-c2nnc(SCC(O)(Cn3cncn3)c3ccc(F)cc3F)[nH]2)cc1 (centres undefined),–,> 128 µg/mL,–,128 µg/mL,–,–,> 128 µg/mL,> 128 µg/mL,> 128 µg/mL,–,–
OC(CSc1nnc(-c2cccc(Br)c2)[nH]1)(Cn1cncn1)c1ccc(F)cc1F (centres undefined),–,> 128 µg/mL,–,128 µg/mL,–,–,8 µg/mL,> 128 µg/mL,8 µg/mL,–,–
Oc1ccc(-c2nnc(SCC(O)(Cn3cncn3)c3ccc(Cl)cc3Cl)[nH]2)cc1 (centres undefined),–,> 128 µg/mL,–,128 µg/mL,–,–,16 µg/mL,128 µg/mL,16 µg/mL,–,–
COc1ccc(-c2nnc(SCC(O)(Cn3cncn3)c3ccc(Cl)cc3Cl)[nH]2)cc1 (centres undefined),–,> 128 µg/mL,–,128 µg/mL,–,–,32 µg/mL,> 128 µg/mL,> 128 µg/mL,–,–
COc1ccc(-c2nnc(SCC(O)(Cn3cncn3)c3ccc(F)cc3F)[nH]2)cc1 (centres undefined),–,> 128 µg/mL,–,4 µg/mL,–,–,2 µg/mL,> 128 µg/mL,4 µg/mL,–,–
OC(CSc1nnc(-c2ccc(Cl)cc2)[nH]1)(Cn1cncn1)c1ccc(F)cc1F (centres undefined),–,> 128 µg/mL,–,128 µg/mL,–,–,0.5 µg/mL,> 128 µg/mL,1 µg/mL,–,–
OC(CSc1nnc(-c2ccccc2)[nH]1)(Cn1cncn1)c1ccc(Cl)cc1Cl (centres undefined),–,> 128 µg/mL,–,128 µg/mL,–,–,4 µg/mL,> 128 µg/mL,1 µg/mL,–,–
Cc1ccc(-c2nnc(SCC(O)(Cn3cncn3)c3ccc(Cl)cc3Cl)[nH]2)cc1 (centres undefined),–,> 128 µg/mL,–,128 µg/mL,–,–,1 µg/mL,128 µg/mL,0.125 µg/mL,–,–
OC(CSc1nnc(-c2ccc(F)cc2)[nH]1)(Cn1cncn1)c1ccc(Cl)cc1Cl (centres undefined),–,> 128 µg/mL,–,128 µg/mL,–,–,0.5 µg/mL,> 128 µg/mL,0.125 µg/mL,–,–
